Measurements reported in the NIST ThermoML archive (doi:10.1021/je200128y).
Several values for one entry are separate records, joined by “and”; a condition that tells them apart may be missing. Equal values may be shown once.

Conditions: Transpiration method

c1ccc(Nc2ccccc2)cc1 [diphenylamine]
Conditions	vapor or sublimation pressure
293.1 K, Crystal	4e-05 kPa
293.7 K, Crystal	4e-05 kPa
296.2 K, Crystal	6e-05 kPa
298.2 K, Crystal	7e-05 kPa
298.4 K, Crystal	8e-05 kPa
300.2 K, Crystal	0.0001 kPa
301 K, Crystal	0.00012 kPa
302.1 K, Crystal	0.00013 kPa
302.7 K, Crystal	0.00015 kPa
303.2 K, Crystal	0.00014 kPa
305.2 K, Crystal	0.00017 kPa
305.5 K, Crystal	0.0002 kPa
308 K, Crystal	0.00024 kPa and 0.00025 kPa
308.2 K, Crystal	0.00026 kPa
309.1 K, Crystal	0.00029 kPa
309.3 K, Crystal	0.0003 kPa
310.7 K, Crystal	0.00034 kPa
312.3 K, Crystal	0.00042 kPa
313 K, Crystal	0.00045 kPa
313.7 K, Crystal	0.0005 kPa
315 K, Crystal	0.00054 kPa and 0.00055 kPa
315.4 K, Crystal	0.00061 kPa
315.7 K, Crystal	0.0006 kPa
316 K, Crystal	0.00065 kPa
316.7 K, Crystal	0.0007 kPa
317.2 K, Crystal	0.00075 kPa
318 K, Crystal	0.00083 kPa
318.2 K, Crystal	0.00086 kPa
318.3 K, Crystal	0.00085 kPa
318.7 K, Crystal	0.00085 kPa
320.3 K, Crystal	0.00111 kPa
320.7 K, Crystal	0.0011 kPa
322.3 K, Crystal	0.00138 kPa
323.2 K, Crystal	0.00153 kPa and 0.00143 kPa
324.1 K, Crystal	0.00169 kPa
324.7 K, Crystal	0.00164 kPa
325.2 K, Crystal	0.00186 kPa
326.7 K, Crystal	0.00203 kPa
328.3 K, Liquid	0.00245 kPa
332.2 K, Liquid	0.00343 kPa
335.4 K, Liquid	0.00438 kPa
338.1 K, Liquid	0.00522 kPa
341.2 K, Liquid	0.00684 kPa
343.2 K, Liquid	0.0081 kPa
346.1 K, Liquid	0.00963 kPa
348.2 K, Liquid	0.01174 kPa
353.1 K, Liquid	0.01698 kPa
357.2 K, Liquid	0.02181 kPa
358.2 K, Liquid	0.02355 kPa
360.2 K, Liquid	0.02829 kPa
363 K, Liquid	0.0322 kPa
363.1 K, Liquid	0.03321 kPa
366.1 K, Liquid	0.04193 kPa
368.1 K, Liquid	0.04848 kPa
368.3 K, Liquid	0.04791 kPa
371.9 K, Liquid	0.06108 kPa
373.1 K, Liquid	0.06621 kPa
